Assay results published in ChEMBL document CHEMBL4673353, “Switching a Xanthine Oxidase Inhibitor to a Dual-Target Antagonist of P2Y and P2Y as an Oral Antiplatelet Agent with a Wider Therapeutic Window in Rats than Ticagrelor” (J Med Chem, 2020).
pIC50: −log10 of the molar value. Blank lines part the entries; values can stand above or below the compound they belong to.

Experiments:
[1] = molecular target: Cytochrome P450 2E1 (Homo sapiens, UniProt P05181); test: Inhibition of CYP2E1 in human liver microsomes using chlorzoxazone as substrate preincubated for 5 mins followed by NADPH generating system addition and measured after 120 mins by LC-MS/MS; type: ADME
Cytochrome P450 2E1, sequence (P05181 whole entry): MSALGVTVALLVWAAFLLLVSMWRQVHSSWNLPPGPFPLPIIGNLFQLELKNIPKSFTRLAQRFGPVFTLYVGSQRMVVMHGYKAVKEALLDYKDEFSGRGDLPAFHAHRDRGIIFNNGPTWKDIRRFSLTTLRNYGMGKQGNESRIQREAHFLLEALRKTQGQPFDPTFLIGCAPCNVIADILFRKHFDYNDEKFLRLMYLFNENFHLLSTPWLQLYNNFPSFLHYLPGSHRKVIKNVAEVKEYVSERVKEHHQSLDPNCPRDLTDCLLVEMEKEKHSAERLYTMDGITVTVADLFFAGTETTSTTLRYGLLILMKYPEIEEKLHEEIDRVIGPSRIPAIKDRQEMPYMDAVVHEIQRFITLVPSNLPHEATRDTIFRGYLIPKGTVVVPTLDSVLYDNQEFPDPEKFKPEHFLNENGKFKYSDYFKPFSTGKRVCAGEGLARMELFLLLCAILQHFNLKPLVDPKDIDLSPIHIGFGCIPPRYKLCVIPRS

[2] = molecular target: Cytochrome P450 2C19 (Homo sapiens, UniProt P33261); test: Inhibition of CYP2C19 in human liver microsomes using S-mephenytoin as substrate preincubated for 5 mins followed by NADPH generating system addition and measured after 120 mins by LC-MS/MS; type: ADME
Cytochrome P450 2C19, sequence (P33261 whole entry): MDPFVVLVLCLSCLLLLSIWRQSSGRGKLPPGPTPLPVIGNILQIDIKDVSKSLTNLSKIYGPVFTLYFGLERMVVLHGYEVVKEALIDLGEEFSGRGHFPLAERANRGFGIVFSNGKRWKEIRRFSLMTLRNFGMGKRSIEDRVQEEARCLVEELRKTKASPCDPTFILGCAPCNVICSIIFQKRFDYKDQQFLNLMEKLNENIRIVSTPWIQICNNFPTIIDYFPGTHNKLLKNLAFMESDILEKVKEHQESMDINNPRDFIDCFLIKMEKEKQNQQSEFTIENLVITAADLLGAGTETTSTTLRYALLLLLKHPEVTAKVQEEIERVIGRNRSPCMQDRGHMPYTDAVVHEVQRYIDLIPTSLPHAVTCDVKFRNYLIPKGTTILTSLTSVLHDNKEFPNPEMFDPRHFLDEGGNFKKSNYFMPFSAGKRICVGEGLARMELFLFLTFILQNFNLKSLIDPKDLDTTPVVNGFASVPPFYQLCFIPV

[3] = molecular target: Cytochrome P450 2C9 (Homo sapiens, UniProt P11712); test: Inhibition of CYP2C9 in human liver microsomes using tolbutamide as substrate preincubated for 5 mins followed by NADPH generating system addition and measured after 120 mins by LC-MS/MS; type: ADME
Cytochrome P450 2C9, sequence (P11712 whole entry): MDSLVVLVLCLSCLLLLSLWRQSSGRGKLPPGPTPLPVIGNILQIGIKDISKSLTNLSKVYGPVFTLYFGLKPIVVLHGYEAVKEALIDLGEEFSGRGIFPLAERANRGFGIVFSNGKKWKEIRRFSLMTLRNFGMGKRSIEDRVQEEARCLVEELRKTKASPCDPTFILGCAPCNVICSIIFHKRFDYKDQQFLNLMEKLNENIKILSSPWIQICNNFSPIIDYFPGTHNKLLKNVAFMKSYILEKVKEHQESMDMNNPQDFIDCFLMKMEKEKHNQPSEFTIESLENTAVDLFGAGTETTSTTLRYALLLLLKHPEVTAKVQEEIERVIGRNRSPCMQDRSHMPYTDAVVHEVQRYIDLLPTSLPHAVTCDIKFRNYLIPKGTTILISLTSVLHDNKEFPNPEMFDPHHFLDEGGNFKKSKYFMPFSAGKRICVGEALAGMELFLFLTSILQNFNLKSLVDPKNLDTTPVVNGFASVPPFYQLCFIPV

[4] = molecular target: T1, Cytochrome P450 2A6 (Homo sapiens, UniProt P11509); test: Inhibition of CYP2A6 in human liver microsomes using coumarin as substrate preincubated for 5 mins followed by NADPH generating system addition and measured after 120 mins by LC-MS/MS; type: ADME
T1 sequence (P11509 whole entry): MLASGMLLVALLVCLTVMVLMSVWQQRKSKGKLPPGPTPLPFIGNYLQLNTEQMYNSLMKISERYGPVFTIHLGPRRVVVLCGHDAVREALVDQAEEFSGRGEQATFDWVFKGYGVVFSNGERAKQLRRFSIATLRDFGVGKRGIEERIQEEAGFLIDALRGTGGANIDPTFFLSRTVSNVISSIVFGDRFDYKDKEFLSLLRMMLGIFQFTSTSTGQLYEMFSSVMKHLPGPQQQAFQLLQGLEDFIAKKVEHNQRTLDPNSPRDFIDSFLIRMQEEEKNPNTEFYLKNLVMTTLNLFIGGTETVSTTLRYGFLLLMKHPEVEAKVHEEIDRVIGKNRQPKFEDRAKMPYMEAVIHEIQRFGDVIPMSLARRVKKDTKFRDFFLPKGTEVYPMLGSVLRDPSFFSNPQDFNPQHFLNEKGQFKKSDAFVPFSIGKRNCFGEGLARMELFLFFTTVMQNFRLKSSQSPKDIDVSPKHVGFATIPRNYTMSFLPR

[5] = molecular target: T2, Cytochrome P450 1A2 (Homo sapiens, UniProt P05177); test: Inhibition of CYP1A2 in human liver microsomes using phenacetin as substrate preincubated for 5 mins followed by NADPH generating system addition and measured after 120 mins by LC-MS/MS; type: ADME
T2 sequence (P05177 whole entry): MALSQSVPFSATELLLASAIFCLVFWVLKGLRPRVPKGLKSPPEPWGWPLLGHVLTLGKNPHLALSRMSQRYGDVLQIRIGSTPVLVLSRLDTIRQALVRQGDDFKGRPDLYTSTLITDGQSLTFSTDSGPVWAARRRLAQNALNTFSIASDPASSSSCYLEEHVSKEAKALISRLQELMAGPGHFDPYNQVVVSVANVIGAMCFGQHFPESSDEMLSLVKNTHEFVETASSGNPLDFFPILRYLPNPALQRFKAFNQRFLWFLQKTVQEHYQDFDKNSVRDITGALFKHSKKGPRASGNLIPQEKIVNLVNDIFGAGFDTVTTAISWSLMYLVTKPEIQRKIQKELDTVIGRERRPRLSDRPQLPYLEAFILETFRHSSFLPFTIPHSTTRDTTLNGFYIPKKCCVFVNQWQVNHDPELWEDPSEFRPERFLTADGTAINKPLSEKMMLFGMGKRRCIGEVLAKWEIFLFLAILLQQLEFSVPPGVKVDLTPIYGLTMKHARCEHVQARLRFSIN

[6] = molecular target: P2Y purinoceptor 12 (Homo sapiens, UniProt Q9H244); test: Antagonist activity at P2Y12 in human whole blood assessed as suppression of ADP-induced decrease in PGE1-induced VASP phosphorylation measured after 10 mins by immunostaining based flow cytometric analysis; type: tissue-based
P2Y purinoceptor 12, sequence (Q9H244 whole entry): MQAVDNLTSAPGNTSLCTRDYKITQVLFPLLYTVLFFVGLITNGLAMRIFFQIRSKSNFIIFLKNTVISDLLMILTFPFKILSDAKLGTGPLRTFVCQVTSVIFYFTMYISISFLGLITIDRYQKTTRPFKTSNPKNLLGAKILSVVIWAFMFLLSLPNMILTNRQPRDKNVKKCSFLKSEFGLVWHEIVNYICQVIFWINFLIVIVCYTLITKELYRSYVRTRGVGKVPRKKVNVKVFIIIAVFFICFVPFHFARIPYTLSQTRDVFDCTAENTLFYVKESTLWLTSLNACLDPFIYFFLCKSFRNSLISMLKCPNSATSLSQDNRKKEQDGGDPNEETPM

[7] = molecular target: Xanthine dehydrogenase/oxidase (Bos taurus, UniProt P80457); test: Inhibition of bovine xanthine oxidase assessed as reduction in uric acid formation at 10 uM using xanthine as substrate preincubated for 15 mins followed by substrate addition measured at 30 sec interval for upto 2 mins by spectrophotometric analysis relative to control; settings: cattle, time 17 min
Xanthine dehydrogenase/oxidase, sequence (P80457 whole entry): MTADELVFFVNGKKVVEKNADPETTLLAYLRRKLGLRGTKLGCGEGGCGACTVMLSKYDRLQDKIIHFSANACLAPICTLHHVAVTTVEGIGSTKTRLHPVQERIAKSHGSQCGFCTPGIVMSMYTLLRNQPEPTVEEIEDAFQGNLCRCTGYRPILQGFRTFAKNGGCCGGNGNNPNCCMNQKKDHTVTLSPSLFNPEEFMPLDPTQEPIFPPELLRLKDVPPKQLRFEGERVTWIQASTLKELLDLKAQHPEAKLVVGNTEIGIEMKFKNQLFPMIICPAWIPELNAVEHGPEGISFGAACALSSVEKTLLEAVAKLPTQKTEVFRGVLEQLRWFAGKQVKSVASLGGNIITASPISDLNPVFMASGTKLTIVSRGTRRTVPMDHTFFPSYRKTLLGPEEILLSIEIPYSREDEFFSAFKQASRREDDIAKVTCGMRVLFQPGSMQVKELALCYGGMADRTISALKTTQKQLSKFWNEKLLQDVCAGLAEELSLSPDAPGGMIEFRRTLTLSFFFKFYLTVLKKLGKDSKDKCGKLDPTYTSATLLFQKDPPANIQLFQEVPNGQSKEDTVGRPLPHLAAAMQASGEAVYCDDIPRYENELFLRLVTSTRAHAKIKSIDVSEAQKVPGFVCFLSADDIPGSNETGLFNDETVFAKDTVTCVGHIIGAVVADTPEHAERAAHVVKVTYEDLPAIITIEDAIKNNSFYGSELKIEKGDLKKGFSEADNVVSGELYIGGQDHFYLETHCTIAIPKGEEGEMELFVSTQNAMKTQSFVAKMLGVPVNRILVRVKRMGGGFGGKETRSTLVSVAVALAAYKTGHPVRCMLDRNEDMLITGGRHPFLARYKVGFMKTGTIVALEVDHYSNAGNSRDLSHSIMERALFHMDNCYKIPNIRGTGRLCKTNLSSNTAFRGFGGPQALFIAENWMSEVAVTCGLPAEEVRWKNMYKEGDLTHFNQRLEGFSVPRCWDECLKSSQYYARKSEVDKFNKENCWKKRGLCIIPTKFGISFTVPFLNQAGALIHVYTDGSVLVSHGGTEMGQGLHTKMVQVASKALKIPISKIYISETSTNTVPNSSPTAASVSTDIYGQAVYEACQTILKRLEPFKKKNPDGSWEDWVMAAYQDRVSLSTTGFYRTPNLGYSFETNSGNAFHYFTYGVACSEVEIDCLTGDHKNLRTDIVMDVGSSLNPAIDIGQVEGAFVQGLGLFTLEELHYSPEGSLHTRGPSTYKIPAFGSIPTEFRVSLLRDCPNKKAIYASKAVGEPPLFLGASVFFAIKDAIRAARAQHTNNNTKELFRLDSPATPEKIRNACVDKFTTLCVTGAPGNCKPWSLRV

[8] = Stability of compound in rat plasma assessed as compound degradation at 10 uM incubated up to 45 mins by HPLC analysis; type: ADME, cell-free; settings: 0.75 h
[9] = Cmax in male Sprague-Dawley rat at 10 mg/kg, iv administered as single dose by LC-MS analysis; type: ADME, organism-based; set-up: route intravenous, dose 10 mg/kg; settings: in vivo
[10] = AUC (0 to infinity) in male Sprague-Dawley rat at 10 mg/kg, iv administered as single dose by LC-MS analysis; type: ADME, organism-based; set-up: time infinity, route intravenous, dose 10 mg/kg; settings: in vivo
[11] = Elimination half-life in male Sprague-Dawley rat at 10 mg/kg, iv administered as single dose by LC-MS analysis; type: ADME, organism-based; settings: in vivo, read-out: beta t1/2 (converted)
[12] = Solubility of compound; type: physicochemical
[13] = Metabolic stability of compound in rat liver microsomes assessed as intrinsic clearance per mg protein at 0.2 uM in presence of NADPH measured up to 90 mins by LC-MS/MS analysis; type: ADME, Microsome; settings: 1.5 h
[14] = Drug metabolism in rat liver microsomes assessed as 1-[(4-Cyanobenzyl)oxy]-2-(3-cyanophenyl)-4-methyl-1H-imidazole-5-carboxylic acid formation at 0.2 uM in presence of NADPH measured up to 90 mins by LC-MS/MS analysis; type: ADME, Microsome; settings: 1.5 h
[15] = Drug metabolism in human liver microsome assessed as 1-[(4-Cyanobenzyl)oxy]-2-(3-cyanophenyl)-4-methyl-1H-imidazole-5-carboxylic acid formation at 0.2 uM in presence of NADPH measured up to 90 mins by LC-MS/MS analysis; type: ADME; settings: microsomes, 1.5 h
[16] = Acute toxicity in Kunming mouse assessed as death at 2000 mg/kg, ig administered as single dose monitored every day up to14 days; type: organism-based; settings: in vivo, po, 336 h, time 14 day
[17] = test system: Rattus norvegicus; test: Antithrombotic activity in FeCl3-induced Sprague-Dawley rat model of arterial thrombosis assessed as reduction in thrombus weight at 5 mg/kg, po qd administered as single dose for 7 days and measured 2 hrs post last dose; type: functional; set-up: scale not given: the % may be the effect or the level left; settings: time 7 day
[18] = test system: Rattus norvegicus; test: Antithrombotic activity in FeCl3-induced Sprague-Dawley rat model of arterial thrombosis assessed as reduction in thrombus weight at 10 mg/kg, po qd administered as single dose for 7 days and measured 2 hrs post last dose; type: functional; set-up: scale not given: the % may be the effect or the level left; settings: time 7 day
[19] = test system: Rattus norvegicus; test: Antithrombotic activity in FeCl3-induced Sprague-Dawley rat model of arterial thrombosis assessed as reduction in thrombus weight at 20 mg/kg, po qd administered as single dose for 7 days and measured 2 hrs post last dose; type: functional; set-up: scale not given: the % may be the effect or the level left; settings: time 7 day
[20] = test system: Rattus norvegicus; test: Antithrombotic activity in FeCl3-induced Sprague-Dawley rat model of arterial thrombosis assessed as reduction in thrombus weight administered orally once daily for 7 days and measured 2 hrs post last dose; type: functional; settings: dose 5-20 mg/kg
[21] = Toxicity in Sprague-Dawley rat model of tail snip bleeding assessed as bleeding weight at 10 mg/kg, po administered via gavage as single dose measured within 2 hrs post tail snip(reference value: 0.08 g); type: organism-based; settings: in vivo
[22] = Toxicity in Sprague-Dawley rat model of tail snip bleeding assessed as increase in bleeding weight at 10 mg/kg, po administered via gavage as single dose measured within 2 hrs post tail snip relative to control; type: organism-based; settings: in vivo

- pIC50 [1]: < 5.00
- pIC50 [2]: < 5.00
- pIC50 [3]: < 5.00
- pIC50 [4]: < 5.00
- pIC50 [5]: < 5.00
- pIC50 [6]: 3.83
- inhibition at 10 µM [7]: < 50%
- Stabilty [8]: Stable
- Cmax [9]: 11200 ng/mL
- AUC(0-inf) [10]: 3500 ng·h/mL
- half-life [11]: 4.89 h
Compound: Cc1nc(-c2cccc(C#N)c2)n(OCc2ccc(C#N)cc2)c1C(=O)O

Compound: CCOC(=O)c1c(C)nc(-c2cccc(C#N)c2)n1OCc1ccc(C#N)cc1
- solubility [12]: Insoluble
- CLH [13]: 0.06 mL/min
- Drug metabolism [14]: Metabolite_Detected
- Drug metabolism [15]: Metabolite_Detected
- Activity [16]: Non-Toxic
- Activity [17]: 22.6%
- Activity [18]: 40.7%
- Activity [19]: 46.7%
- Activity ([20]; time 7.0 day): Dose-dependent effect
- ED50 ([20]; po, 168 h, time 7 day): 20.8 mg/kg
- Activity [21]: 0.4 g
- fold change (FC) [22]: 5
